Experimental findings from article PMC5120274, “Characterization of the Annonaceous acetogenin, annonacinone, a natural product inhibitor of plasminogen activator inhibitor-1” (Scientific Reports, 2016) are described below.

As a reminder, the IC50 is the point on the concentration scale where inhibition reaches its midpoint.

Each structure is given as a SMILES string.

Experiment [1] has as its system T1, PAI-1.
T1 construct: purchased Stago BNL (Asnières sur Seine, FR)
Nature of the experiment: elastase mediated cleavage of PAI-1 (latency transition) on SDS-PAGE. It is filed as biochemical, human. As to conditions: up to 50 μM. The protocol: Selective cleavage of active PAI-1 by elastase was observed on SDS-PAGE. PAI-1 (5 μL, 2 μM) was incubated with or without compounds (200 μM, 5 μL, 5% DMSO) for 15 min at 37 °C. Elastase (5 μL, 1.4 μM) was then added and further incubated for 15 min at 37 °C. Reaction was stopped by addition of 4X loading buffer containing SDS and BME followed by immediate boiling. Samples were then analyzed on SDS-PAGE followed by silver staining.

The next experiment concerns T2, PAI-1 T94A.
T2 construct: made in house
Nature of the experiment: chromogenic screening assay with PAI-1 mutant T94A. Format: biochemical. On the procedure:
(§1) Compounds from our local collection BioCIS and from the Prestwick compound library (Prestwick chemicals, Illkirch, FR), a collection containing only FDA approved drugs (around 4000 compounds in total) were tested in a chromogenic assay measuring the inhibition rate of tPA-catalyzed spectrozyme® tPA hydrolysis in the presence of PAI-1. Compounds (20 μL, final concentration 50 μM, 1% DMSO) were dispensed in a 96 well half area Greiner plate. A mixture containing 20 μL of PAI-1 (final concentration 20 nM) and 80 μL of Spectrozyme-tPA (final concentration 400 μM) was then added, and the mixture pre-incubated for 45 minutes at 37 °C. At the end of pre-incubation time, 90 μL of the mixture were added to another 96 well half area plate containing 10 μL tPA (final concentration 10 nM). The kinetic was then measured at 405 nm for 45 min at 37 °C in an Envision microplate reader. Progress curves were fitted using the pseudo first order equation to determine the apparent rate constant k.
(§2) Mutants were constructed as previously described. […] The effect of annonacinone was measured at 50 μM for each mutant in our chromogenic screening assay. […] For each mutant, the ratio between the apparent rate constants with and without 50 μM annonacinone were calculated and then compared to that of PAI-1 WT to determine the % of annonacinone activity.

Experiment [2] has as its target T3, PAI-1/vitronectin complex (Homo sapiens, UniProt P05121).
T3 construct: purchased Stago BNL (Asnières sur Seine, FR)
Description: chromogenic kinetic assay in presence of vitronectin. Format: biochemical. On the procedure:
Compounds (20 μL) were dispensed in a 96 well half area Greiner plate. A mixture containing 20 μL of PAI-1 (final concentration 20 nM) and 40 μL of a chromogenic substrate (Spectrozyme-tPA, final concentration 400 μM) was then added, and the mixture pre-incubated for 20 minutes at 37 °C. 40 μL of vitronectin (final concentration 37.5 nM) was added and the mixture further pre-incubated for 20 min at 37 °C. At the end of pre-incubation time, 90 μL of the PAI-1/vitronectin/compound mixture were added to 10 μL of tPA (final concentration 10 nM) and the tPA catalysed substrate hydrolysis reaction was followed for 45 min at 405 nm. Progress curves were then fitted using the pseudo first order equation to determine the apparent rate constant k.

Another experiment deals with T4, PAI-1 D95A.
T4 construct: made in house
Description: chromogenic screening assay with PAI-1 mutant D95A. Format: biochemical. As to conditions: ratio of kapp relative to WT (100%). The protocol: as §1, §2

The next experiment has as its system FeCl3-occluded venules. Nature of the experiment: murine model of rtPA-induced thrombolysis by intravital microscopy. It is filed as in vivo, mice. On the procedure: Thrombolysis was evaluated in an in vivo mouse model according to the method previously described[18] with modifications. Briefly, platelets of anesthetized mice were fluorescently labeled in vivo by injection of rhodamine 6G (3.3 mg/kg) into the retro-orbital plexus, then thrombus formation was induced by topical deposition on the mesenteric vessels of ferric chloride solution (FeCl3; 15%) in 4- to 5-week-old mice. Thrombus growth was monitored in real-time with an inverted epifluorescent microscope (x10) (Nikon Eclipse TE2000U). Within the 10 minutes after total occlusion of the vessel, the effect of annonacinone was evaluated on the efficiency of rtPA-induced thrombolysis by applying directly on the occluded vessels a thrombolytic cocktail (40 μL) composed of 40 μM rtPA (Actilyse®), 200 μM Argatroban (Arganova®) and 0.2% DMSO or 20 μM annonacinone. The incidence of the recanalization, defined as a partial or complete restoration of flow associated to a decrease of more than 50% of the initial thrombus size, and the evolution of thrombus size were determined during 1 hour.

The next experiment deals with T5, PAI-1 R118A.
T5 construct: made in house
Nature of the experiment: chromogenic screening assay with PAI-1 mutant R118A. Format: biochemical. The protocol: as §1, §2

The next experiment concerns T6, human α1-antitrypsin.
T6 construct: purchased Sigma
Nature of the experiment: continuous chromogenic assay: inhibition of neutrophil elastase by α1-antitrypsin. As to conditions: α1-antitrypsin pre-incubated with 50 μM annonacinone 20 min 37 °C; untreated 1.2 × 10^−3. It is filed as biochemical. The protocol: 5 μM human α1-antitrypsin (Sigma) or human antithrombin (Aclotin®, LFB) were incubated with 50 μM annonacinone (or 0.5% DMSO in reaction buffer as control) for 20 min at 37 °C. The mixtures containing α1-antitrypsin were diluted in N-Methoxysuccinyl-Ala-Ala-Pro-Val p-nitroanilide (Sigma) containing solution and substrate hydrolysis kinetic was triggered by addition of neutrophil elastase (Sigma) to a final volume of 100 μL containing 13 nM α1-antitrypsin, 130 nM annonacinone, 82 μM chromogenic substrate and 5 nM neutrophil elastase. The mixtures containing antithrombin were diluted in fondaparinux (Arixtra®, GlaxoSmithKline) and CS-11(22)-FXa (Hyphen Biomed) containing solution and substrate hydrolysis kinetic was triggered by addition of factor Xa (Stago BNL) to a final volume of 100 μL containing 51 nM antithrombin, 510 nM annonacinone, 200 μM chromogenic substrate, 5 μM fondaparinux and 2 nM factor Xa.

The test system of the next experiment is T7, PAI-1/tPA complex.
T7 construct: purchased Stago BNL (Asnières sur Seine, FR)
Description: PAI-1/tPA complex formation on SDS-PAGE. Format: biochemical, human. As to conditions: PAI-1 pre-incubated with annonacinone 30 min 37 °C. The protocol:
PAI-1 (4 μL, 1 μM) was pre-incubated with 16 μL annonacinone (2% DMSO) for 30 min at 37 °C. Human tPA (4 μL, 0.5 μM) was then added to the mixture and incubated for 15 min at 37 °C. Reaction was stopped by addition of 4X SDS-PAGE loading buffer followed by immediate boiling. Samples were then analyzed on SDS-PAGE followed by silver staining.

Experiment [3] deals with T8, PAI-1 (Homo sapiens, UniProt P05121).
T8 construct: purchased Stago BNL (Asnières sur Seine, FR)
T8 sequence (P05121 24-402): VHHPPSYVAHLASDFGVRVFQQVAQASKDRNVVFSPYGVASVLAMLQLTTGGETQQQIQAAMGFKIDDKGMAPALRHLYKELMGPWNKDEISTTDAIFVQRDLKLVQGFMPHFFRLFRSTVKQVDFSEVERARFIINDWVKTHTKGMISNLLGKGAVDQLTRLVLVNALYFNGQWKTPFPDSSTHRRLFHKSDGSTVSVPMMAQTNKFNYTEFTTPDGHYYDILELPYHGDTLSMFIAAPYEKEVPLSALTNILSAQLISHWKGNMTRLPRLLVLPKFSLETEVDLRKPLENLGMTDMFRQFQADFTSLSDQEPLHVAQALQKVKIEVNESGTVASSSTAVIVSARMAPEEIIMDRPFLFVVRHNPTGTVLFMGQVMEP
Description: chromogenic screening assay: rate of tPA inhibition by PAI-1 (spectrozyme tPA hydrolysis). Format: biochemical. As to conditions: mean ± SEM. The protocol:
as §1

Setting [4] is: ratio of kapp relative to WT (100%).

T3 sequence (P05121 24-402, one chain of several): as the sequence (P05121 24-402) above

On to `CCCCCCCCCCCC[C@@H](O)[C@H]1CC[C@H]([C@H](O)CCCCC(=O)CCCCC[C@@H](O)CC2=C[C@H](C)OC2=O)O1` [Annonacinone], for which the “effect on latency transition of PAI-1” value with PAI-1 [1] is recorded as “No effects”. The “kapp Annonacinone 50 μM” value is given as 2,3 ± 0,4 × 10^−3 s^−1 in the experiment with PAI-1 T94A (DMSO 1% 6,6 ± 0,9 × 10^−3, n = 4); 3,4 ± 0,3 × 10^−4 s^−1 in the experiment on PAI-1 R118A (DMSO 1% 6,0 ± 0,9 × 10^−3, n = 4); 9,6 ± 1,0 × 10^−4 s^−1 at PAI-1 [3] (PAI-1 WT (Table 2 series), DMSO 1% 6,5 ± 0,6 × 10^−3, n = 4). Moreover, the “Annonacinone activity 50 μM (% WT)” value with PAI-1 T94A (setting [4]) stood at 42 ± 6 % WT; with PAI-1 D95A, 163 ± 24 % WT; in the experiment with PAI-1 R118A (setting [4]) it was 264 ± 40 % WT. For the same molecule, the “activity on PAI-1 bound to vitronectin” value in experiment [2] (50 μM) is “inactive”. In experiment [2] (50 μM, PAI-1 pre-incubated with VN 20 min 37 °C, DMSO 1% 1.05 ± […] 10^−2), the “kapp, annonacinone added to PAI-1 pre-incubated with vitronectin” value is on record as 2.16 ± 0.17 × 10^−2 s^−1. For the same molecule, the “kapp, annonacinone pre-incubated with PAI-1 before addition of vitronectin” value in experiment [2] (50 μM, pre-incubation with PAI-1 20 min 37 °C, then VN 20 min 37 °C) is 2.39 ± 0.32 × 10^−3 s^−1. Further, the IC50 in [2] (annonacinone pre-incubated with PAI-1 before vitronectin) stood at 10 ± 2 µM; on PAI-1 [3] (chromogenic screening assay, without vitronectin, n = 3, read-out: IC50), 9 ± 1 µM. In addition, the incidence of recanalization with FeCl3-occluded venules (20 μM annonacinone applied locally with rtPA 40 μM and Argatroban 200 μM, 1 hour, DMSO 0.2% control 28%) is given as 71%. Moreover, the “total number of vessels recanalized per group of 7 mice” value with FeCl3-occluded venules (20 μM annonacinone with rtPA 40 μM and Argatroban 200 μM, 1 hour, DMSO control 2/7) is 5/7. The “decrease of thrombus size from initial size” value in the experiment with FeCl3-occluded venules (35 minutes of treatment, 20 μM annonacinone with rtPA and Argatroban, n = 7, DMSO 3.4 ± 8.5%) came out at 29.7 ± 7.7%. Besides, the “kapp of neutrophil elastase inhibition by α1-antitrypsin” value in the experiment with human α1-antitrypsin came out at 0.0011 s⁻¹. Besides, in the experiment with PAI-1/tPA complex, the “effect on PAI-1/tPA covalent complex formation” value was “concentration-dependent inhibition”. The “kapp 50 μM (apparent rate constant of tPA inhibition by PAI-1)” value at PAI-1 [3] (compound 50 μM, 1% DMSO, PAI-1 20 nM, tPA 10 nM, DMSO 1% control 4.4 ± 0.3 × 10^-3, n = 3) is 6.4 ± 0.7 × 10^-4 s^-1.
